{
  "source": "PubChem BioAssay AID1963451",
  "about": "(Molecular Pharmacology Branch, DTP, NCI, 2024)",
  "test_system": "521955-158-R6-J3-PDC complex spheroid growth, % test/control",
  "experiment": "Anticancer human tumor 521955-158-R6-J3-PDC patient-derived pancreatic carcinoma cell line growth inhibition [Asc]",
  "settings": "for IC50: curve of first compound; for viability, T/C: stronger effect = lower value",
  "outline": "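Complex spheroids combining tumor cells with HUVEC endothelial cells and human MSCs, at 37 degrees C, 5% CO2; agents tested alone or combined, half-log dilutions from at or near clinical Cmax, or 10 microM if Cmax unknown.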",
  "data": [
    {"compound": "C=CC(=O)N1CCN(c2nc(=O)n(-c3c(C)ccnc3C(C)C)c3nc(-c4c(O)cccc4F)c(F)cc23)C(C)C1", "note": "(centres undefined) + Cc1c(S(C)(=O)=O)c(-c2cc(F)cc(N3CCN(c4ccc(NS(=O)(=O)c5ccc(NC(CCN6CCC(C(=O)OCCCP(=O)(O)O)CC6)CSc6ccccc6)c(S(=O)(=O)C(F)(F)F)c5)cc4)CC3)c2)c(-c2ccc(Cl)cc2)n1C(C)C;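 further: spheroids exposed to compounds for 7 days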;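 on viability, T/C: 100% = DMSO vehicle control wells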", "values": [
      {"measurement": "IC50", "setting": "second compound 0.0316 µM", "value": "> 10", "unit": "µM"},
      {"measurement": "IC50", "setting": "second compound 0.1 µM", "value": "> 10", "unit": "µM"},
      {"measurement": "IC50", "setting": "second compound 0.316 µM", "value": "< 0.0316", "unit": "µM"},
      {"measurement": "IC50", "setting": "second compound 1 µM", "value": "< 0.0316", "unit": "µM"},
      {"measurement": "IC50", "setting": "second compound 3.16 µM", "value": "< 0.0316", "unit": "µM"},
      {"measurement": "IC50", "setting": "second compound 10 µM", "value": "< 0.0316", "unit": "µM"},
      {"measurement": "viability, T/C", "setting": "second compound 0.0316 µM, first compound 0.0316 µM", "value": 84.4, "unit": "%"},
      {"measurement": "viability, T/C", "setting": "second compound 0.0316 µM, first compound 0.1 µM", "value": 84, "unit": "%"},
      {"measurement": "viability, T/C", "setting": "second compound 0.0316 µM, first compound 0.316 µM", "value": 84.6, "unit": "%"},
      {"measurement": "viability, T/C", "setting": "second compound 0.0316 µM, first compound 1 µM", "value": 80.3, "unit": "%"},
      {"measurement": "viability, T/C", "setting": "second compound 0.0316 µM, first compound 3.16 µM", "value": 79.7, "unit": "%"},
      {"measurement": "viability, T/C", "setting": "second compound 0.0316 µM, first compound 10 µM", "value": 79.7, "unit": "%"},
      {"measurement": "viability, T/C", "setting": "second compound 0.1 µM, first compound 0.0316 µM", "value": 72.2, "unit": "%"},
      {"measurement": "viability, T/C", "setting": "second compound 0.1 µM, first compound 0.1 µM", "value": 72.3, "unit": "%"},
      {"measurement": "viability, T/C", "setting": "second compound 0.1 µM, first compound 0.316 µM", "value": 67.6, "unit": "%"},
      {"measurement": "viability, T/C", "setting": "second compound 0.1 µM, first compound 1 µM", "value": 68.4, "unit": "%"},
      {"measurement": "viability, T/C", "setting": "second compound 0.1 µM, first compound 3.16 µM", "value": 59.6, "unit": "%"},
      {"measurement": "viability, T/C", "setting": "second compound 0.1 µM, first compound 10 µM", "value": 50.7, "unit": "%"},
      {"measurement": "viability, T/C", "setting": "second compound 0.316 µM, first compound 0.0316 µM", "value": 47.8, "unit": "%"},
      {"measurement": "viability, T/C", "setting": "second compound 0.316 µM, first compound 0.1 µM", "value": 48.4, "unit": "%"},
      {"measurement": "viability, T/C", "setting": "second compound 0.316 µM, first compound 0.316 µM", "value": 42.5, "unit": "%"},
      {"measurement": "viability, T/C", "setting": "second compound 0.316 µM, first compound 1 µM", "value": 46.3, "unit": "%"},
      {"measurement": "viability, T/C", "setting": "second compound 0.316 µM, first compound 3.16 µM", "value": 38.3, "unit": "%"},
      {"measurement": "viability, T/C", "setting": "second compound 0.316 µM, first compound 10 µM", "value": 29.2, "unit": "%"},
      {"measurement": "viability, T/C", "setting": "second compound 1 µM, first compound 0.0316 µM", "value": 45.6, "unit": "%"},
      {"measurement": "viability, T/C", "setting": "second compound 1 µM, first compound 0.1 µM", "value": 36.8, "unit": "%"},
      {"measurement": "viability, T/C", "setting": "second compound 1 µM, first compound 0.316 µM", "value": 41.8, "unit": "%"},
      {"measurement": "viability, T/C", "setting": "second compound 1 µM, first compound 1 µM", "value": 33.7, "unit": "%"},
      {"measurement": "viability, T/C", "setting": "second compound 1 µM, first compound 3.16 µM", "value": 23.6, "unit": "%"},
      {"measurement": "viability, T/C", "setting": "second compound 1 µM, first compound 10 µM", "value": 19.8, "unit": "%"},
      {"measurement": "viability, T/C", "setting": "second compound 3.16 µM, first compound 0.0316 µM", "value": 23.1, "unit": "%"},
      {"measurement": "viability, T/C", "setting": "second compound 3.16 µM, first compound 0.1 µM", "value": 22.8, "unit": "%"},
      {"measurement": "viability, T/C", "setting": "second compound 3.16 µM, first compound 0.316 µM", "value": 17.4, "unit": "%"},
      {"measurement": "viability, T/C", "setting": "second compound 3.16 µM, first compound 1 µM", "value": 15.6, "unit": "%"},
      {"measurement": "viability, T/C", "setting": "second compound 3.16 µM, first compound 3.16 µM", "value": 12.6, "unit": "%"},
      {"measurement": "viability, T/C", "setting": "second compound 3.16 µM, first compound 10 µM", "value": 7.39, "unit": "%"},
      {"measurement": "viability, T/C", "setting": "second compound 10 µM, first compound 0.0316 µM", "value": 12.7, "unit": "%"},
      {"measurement": "viability, T/C", "setting": "second compound 10 µM, first compound 0.1 µM", "value": 9.59, "unit": "%"},
      {"measurement": "viability, T/C", "setting": "second compound 10 µM, first compound 0.316 µM", "value": 12.5, "unit": "%"},
      {"measurement": "viability, T/C", "setting": "second compound 10 µM, first compound 1 µM", "value": 9.66, "unit": "%"},
      {"measurement": "viability, T/C", "setting": "second compound 10 µM, first compound 3.16 µM", "value": 23.2, "unit": "%"},
      {"measurement": "viability, T/C", "setting": "second compound 10 µM, first compound 10 µM", "value": 8.51, "unit": "%"}
    ]},
    {"compound": "NC(=O)C(=Cn1cnc(-c2cc(C(F)(F)F)cc(C(F)(F)F)c2)n1)c1cncnc1", "note": "+ CNC(C)C(=O)NC1CN(S(=O)(=O)c2cccc(S(=O)(=O)N3CCC4CCC(C(=O)NC(c5ccccc5)c5ccccc5)N4C(=O)C(NC(=O)C(C)NC)C3)c2)CCC2CCC(C(=O)NC(c3ccccc3)c3ccccc3)N2C1=O", "values": [
      {"measurement": "IC50", "setting": "second compound 0.00316 µM", "value": "> 0.3", "unit": "µM"},
      {"measurement": "IC50", "setting": "second compound 0.01 µM", "value": "> 0.3", "unit": "µM"},
      {"measurement": "IC50", "setting": "second compound 0.0316 µM", "value": "> 0.3", "unit": "µM"},
      {"measurement": "IC50", "setting": "second compound 0.1 µM", "value": "> 0.3", "unit": "µM"},
      {"measurement": "IC50", "setting": "second compound 0.316 µM", "value": "> 0.3", "unit": "µM"},
      {"measurement": "IC50", "setting": "second compound 1 µM", "value": "> 0.3", "unit": "µM"},
      {"measurement": "viability, T/C", "setting": "second compound 0.00316 µM, first compound 0.000949 µM", "value": 114, "unit": "%"},
      {"measurement": "viability, T/C", "setting": "second compound 0.00316 µM, first compound 0.003 µM", "value": 122, "unit": "%"},
      {"measurement": "viability, T/C", "setting": "second compound 0.00316 µM, first compound 0.00949 µM", "value": 119, "unit": "%"},
      {"measurement": "viability, T/C", "setting": "second compound 0.00316 µM, first compound 0.03 µM", "value": 104, "unit": "%"},
      {"measurement": "viability, T/C", "setting": "second compound 0.00316 µM, first compound 0.0949 µM", "value": 93.9, "unit": "%"},
      {"measurement": "viability, T/C", "setting": "second compound 0.00316 µM, first compound 0.3 µM", "value": 66.5, "unit": "%"},
      {"measurement": "viability, T/C", "setting": "second compound 0.01 µM, first compound 0.000949 µM", "value": 71, "unit": "%"},
      {"measurement": "viability, T/C", "setting": "second compound 0.01 µM, first compound 0.003 µM", "value": 69.2, "unit": "%"},
      {"measurement": "viability, T/C", "setting": "second compound 0.01 µM, first compound 0.00949 µM", "value": 59.2, "unit": "%"},
      {"measurement": "viability, T/C", "setting": "second compound 0.01 µM, first compound 0.03 µM", "value": 81.7, "unit": "%"},
      {"measurement": "viability, T/C", "setting": "second compound 0.01 µM, first compound 0.0949 µM", "value": 83.7, "unit": "%"},
      {"measurement": "viability, T/C", "setting": "second compound 0.01 µM, first compound 0.3 µM", "value": 75.5, "unit": "%"},
      {"measurement": "viability, T/C", "setting": "second compound 0.0316 µM, first compound 0.000949 µM", "value": 79.5, "unit": "%"},
      {"measurement": "viability, T/C", "setting": "second compound 0.0316 µM, first compound 0.003 µM", "value": 59.5, "unit": "%"},
      {"measurement": "viability, T/C", "setting": "second compound 0.0316 µM, first compound 0.00949 µM", "value": 63.9, "unit": "%"},
      {"measurement": "viability, T/C", "setting": "second compound 0.0316 µM, first compound 0.03 µM", "value": 62.9, "unit": "%"},
      {"measurement": "viability, T/C", "setting": "second compound 0.0316 µM, first compound 0.0949 µM", "value": 79.6, "unit": "%"},
      {"measurement": "viability, T/C", "setting": "second compound 0.0316 µM, first compound 0.3 µM", "value": 66.6, "unit": "%"},
      {"measurement": "viability, T/C", "setting": "second compound 0.1 µM, first compound 0.000949 µM", "value": 65.7, "unit": "%"},
      {"measurement": "viability, T/C", "setting": "second compound 0.1 µM, first compound 0.003 µM", "value": 69, "unit": "%"},
      {"measurement": "viability, T/C", "setting": "second compound 0.1 µM, first compound 0.00949 µM", "value": 65.2, "unit": "%"},
      {"measurement": "viability, T/C", "setting": "second compound 0.1 µM, first compound 0.03 µM", "value": 58.7, "unit": "%"},
      {"measurement": "viability, T/C", "setting": "second compound 0.1 µM, first compound 0.0949 µM", "value": 75.2, "unit": "%"},
      {"measurement": "viability, T/C", "setting": "second compound 0.1 µM, first compound 0.3 µM", "value": 75.1, "unit": "%"},
      {"measurement": "viability, T/C", "setting": "second compound 0.316 µM, first compound 0.000949 µM", "value": 61, "unit": "%"},
      {"measurement": "viability, T/C", "setting": "second compound 0.316 µM, first compound 0.003 µM", "value": 69.9, "unit": "%"},
      {"measurement": "viability, T/C", "setting": "second compound 0.316 µM, first compound 0.00949 µM", "value": 70.3, "unit": "%"},
      {"measurement": "viability, T/C", "setting": "second compound 0.316 µM, first compound 0.03 µM", "value": 71, "unit": "%"},
      {"measurement": "viability, T/C", "setting": "second compound 0.316 µM, first compound 0.0949 µM", "value": 68, "unit": "%"},
      {"measurement": "viability, T/C", "setting": "second compound 0.316 µM, first compound 0.3 µM", "value": 70.2, "unit": "%"},
      {"measurement": "viability, T/C", "setting": "second compound 1 µM, first compound 0.000949 µM", "value": 54.4, "unit": "%"},
      {"measurement": "viability, T/C", "setting": "second compound 1 µM, first compound 0.003 µM", "value": 66.9, "unit": "%"},
      {"measurement": "viability, T/C", "setting": "second compound 1 µM, first compound 0.00949 µM", "value": 70, "unit": "%"},
      {"measurement": "viability, T/C", "setting": "second compound 1 µM, first compound 0.03 µM", "value": 60.6, "unit": "%"},
      {"measurement": "viability, T/C", "setting": "second compound 1 µM, first compound 0.0949 µM", "value": 86.1, "unit": "%"},
      {"measurement": "viability, T/C", "setting": "second compound 1 µM, first compound 0.3 µM", "value": 62, "unit": "%"}
    ]}
  ]
}
